What all share (format): in vivo
The test system of assay [1] is Zymoseptoria tritici. Kind of assay: Leaf blotch of wheat (SEPTTR) disease control on wheat seedlings. As to conditions: low volume application, 125.1 g/H; for SEPTTR 1DP, LV activity at 125.1 g/H (% Control rating): 1 Day Protectant; for SEPTTR 3DC, LV activity at 125.1 g/H (% Control rating): 3 Day Curative; for SEPTTR 1DP disease control rating, LV activity at 125.1 g/H: 1 day protectant; for SEPTTR 3DC disease control rating, LV activity at 125.1 g/H: 3 day curative.

In assay [2] the test system is Puccinia triticina. Kind of assay: Wheat brown rust (PUCCRT) disease control on wheat seedlings. The note with it: low volume application, 125.1 g/H; for PUCCRT 1DP, LV activity at 125.1 g/H (% Control rating): 1 Day Protectant; for PUCCRT 3DC, LV activity at 125.1 g/H (% Control rating): 3 Day Curative; for PUCCRT 1DP disease control rating, LV activity at 125.1 g/H: 1 day protectant; for PUCCRT 3DC disease control rating, LV activity at 125.1 g/H: 3 day curative.

The subject of assay [3] is Phakopsora pachyrhizi. Kind of assay: Asian soybean rust (PHAKPA) disease control. Further details: key: A: > 80; B: ≤ 80; C: Not Tested; D: No Activity Observed in the Reported Assay. As to conditions: 25 ppm; for PHAKPA disease control, 1DP: 1 Day Protectant; for PHAKPA disease control, 3DC: 3 Day Curative.

Structures are written as SMILES.

`COc1ccnc(C(=O)N[C@@H](C)C(=O)O[C@@H](C)[C@H](Oc2ccc(Cl)cc2)C(C)C)c1OC(C)=O` [Cmpd 568]: in assay [1], the “SEPTTR 1DP, LV activity at 125.1 g/H (% Control rating)” value (“SEPTTR 1DP … (% Control rating)” for short) is on record as “B (≤ 80)” and the “SEPTTR 3DC, LV activity at 125.1 g/H (% Control rating)” value (shortened to “SEPTTR 3DC … (% Control rating)”) was “A (> 80)”. In addition, in assay [2], the “PUCCRT 1DP, LV activity at 125.1 g/H (% Control rating)” value (“PUCCRT 1DP … (% Control rating)” below) is listed as “A (> 80)” and the “PUCCRT 3DC, LV activity at 125.1 g/H (% Control rating)” value (from here on “PUCCRT 3DC … (% Control rating)”) is listed as “A (> 80)”. In assay [3], the “PHAKPA disease control, 1DP” value was “A (> 80)” and the “PHAKPA disease control, 3DC” value is reported as “B (≤ 80)”.
As to `COc1ccnc(C(=O)N[C@@H](C)C(=O)O[C@@H](C)[C@H](Oc2cccc3ccccc23)C(C)C)c1OCOC(C)=O` [Cmpd 621], in assay [1], the “SEPTTR 1DP … (% Control rating)” value was “B (≤ 80)” and the “SEPTTR 3DC … (% Control rating)” value is on record as “A (> 80)”. Moreover, in assay [2], the “PUCCRT 1DP … (% Control rating)” value is given as “A (> 80)” and the “PUCCRT 3DC … (% Control rating)” value is listed as “A (> 80)”. Moreover, in assay [3], the “PHAKPA disease control, 1DP” value is listed as “A (> 80)” and the “PHAKPA disease control, 3DC” value is recorded as “D”.
Take `CCC(CC)[C@@H](Oc1ccccc1Cl)[C@H](C)OC(=O)[C@H](C)NC(=O)c1nccc(OC)c1OC(C)=O` [Cmpd 604]: in assay [1], the “SEPTTR 1DP … (% Control rating)” value is given as “B (≤ 80)” and the “SEPTTR 3DC … (% Control rating)” value is given as “A (> 80)”. In addition, in assay [2], the “PUCCRT 1DP … (% Control rating)” value is reported as “A (> 80)” and the “PUCCRT 3DC … (% Control rating)” value was “A (> 80)”. Further, in assay [3], the “PHAKPA disease control, 1DP” value is reported as “B (≤ 80)” and the “PHAKPA disease control, 3DC” value was “B (≤ 80)”.
`COc1ccnc(C(=O)N[C@@H](C)C(=O)O[C@@H](C)[C@H](Oc2cc(F)ccc2F)C(C)C)c1OC(C)=O` [Cmpd 627]: in assay [1], the “SEPTTR 1DP … (% Control rating)” value is “B (≤ 80)” and the “SEPTTR 3DC … (% Control rating)” value was “A (> 80)”. Further, in assay [2], the “PUCCRT 1DP … (% Control rating)” value is “A (> 80)” and the “PUCCRT 3DC … (% Control rating)” value was “A (> 80)”. In assay [3], the “PHAKPA disease control, 1DP” value was “B (≤ 80)” and the “PHAKPA disease control, 3DC” value is given as “B (≤ 80)”.
Take `COc1ccnc(C(=O)N[C@@H](C)C(=O)O[C@@H](C)[C@H](Oc2ccccc2)c2ccc(F)cc2)c1OCOC(C)=O` [Cmpd 924]: in assay [1], the “SEPTTR 1DP disease control rating, LV activity at 125.1 g/H” value (shortened to “SEPTTR 1DP disease control rating”) is “A (> 80)” and the “SEPTTR 3DC disease control rating, LV activity at 125.1 g/H” value (“SEPTTR 3DC disease control rating” below) is on record as “A (> 80)”. In addition, in assay [2], the “PUCCRT 1DP disease control rating, LV activity at 125.1 g/H” value (from here on “PUCCRT 1DP disease control rating”) is reported as “A (> 80)” and the “PUCCRT 3DC disease control rating, LV activity at 125.1 g/H” value (shortened to “PUCCRT 3DC disease control rating”) is given as “A (> 80)”. For the same compound, in assay [3], the “PHAKPA disease control, 1DP” value is on record as “A (> 80)” and the “PHAKPA disease control, 3DC” value is recorded as “D”.
As to `COc1ccnc(C(=O)N[C@@H](C)C(=O)O[C@@H](C)[C@H](Oc2cc(F)ccc2F)C(C)C)c1OCOC(C)=O` [Cmpd 616], in assay [1], the “SEPTTR 1DP … (% Control rating)” value is given as “B (≤ 80)” and the “SEPTTR 3DC … (% Control rating)” value is “A (> 80)”. Moreover, in assay [2], the “PUCCRT 1DP … (% Control rating)” value is recorded as “A (> 80)” and the “PUCCRT 3DC … (% Control rating)” value was “A (> 80)”. Moreover, in assay [3], the “PHAKPA disease control, 1DP” value is “A (> 80)” and the “PHAKPA disease control, 3DC” value was “A (> 80)”.
In the case of `CCC(CC)[C@@H](Oc1cccc(F)c1)[C@H](C)OC(=O)[C@H](C)NC(=O)c1nccc(OC)c1OC(C)=O` [Cmpd 597], in assay [1], the “SEPTTR 1DP … (% Control rating)” value is listed as “A (> 80)” and the “SEPTTR 3DC … (% Control rating)” value was “A (> 80)”. In addition, in assay [2], the “PUCCRT 1DP … (% Control rating)” value is “A (> 80)” and the “PUCCRT 3DC … (% Control rating)” value is listed as “A (> 80)”. In assay [3], the “PHAKPA disease control, 1DP” value is “A (> 80)” and the “PHAKPA disease control, 3DC” value is “B (≤ 80)”.
In the case of `CCC(CC)[C@H](Oc1ccc(Cl)cc1Cl)[C@H](C)OC(=O)[C@H](C)NC(=O)c1nccc(OC)c1OCOC(C)=O` [Cmpd 670], in assay [1], the “SEPTTR 1DP disease control rating” value was “A (> 80)” and the “SEPTTR 3DC disease control rating” value is given as “A (> 80)”. For the same compound, in assay [2], the “PUCCRT 1DP disease control rating” value is on record as “A (> 80)” and the “PUCCRT 3DC disease control rating” value is “A (> 80)”. For the same compound, in assay [3], the “PHAKPA disease control, 1DP” value is given as “B (≤ 80)” and the “PHAKPA disease control, 3DC” value is listed as “B (≤ 80)”.
As to `CCC(CC)[C@@H](Oc1ccc(Cl)cc1)[C@H](C)OC(=O)[C@H](C)NC(=O)c1nccc(OC)c1OC(C)=O` [Cmpd 600], in assay [1], the “SEPTTR 1DP … (% Control rating)” value is on record as “A (> 80)” and the “SEPTTR 3DC … (% Control rating)” value was “A (> 80)”. Besides, in assay [2], the “PUCCRT 1DP … (% Control rating)” value is “A (> 80)” and the “PUCCRT 3DC … (% Control rating)” value is recorded as “A (> 80)”. Moreover, in assay [3], the “PHAKPA disease control, 1DP” value was “B (≤ 80)” and the “PHAKPA disease control, 3DC” value is recorded as “B (≤ 80)”.
On to `COc1ccnc(C(=O)N[C@@H](C)C(=O)O[C@@H](C)[C@H](OCC2CC2)c2cccc(-c3ccccc3)c2)c1OCOC(C)=O` [Cmpd 873], for which, in assay [1], the “SEPTTR 1DP disease control rating” value is “B (≤ 80)” and the “SEPTTR 3DC disease control rating” value is listed as “A (> 80)”. In addition, in assay [2], the “PUCCRT 1DP disease control rating” value is “A (> 80)” and the “PUCCRT 3DC disease control rating” value is on record as “A (> 80)”. In assay [3], the “PHAKPA disease control, 1DP” value is recorded as “A (> 80)” and the “PHAKPA disease control, 3DC” value is “B (≤ 80)”.
Take `COc1ccnc(C(=O)NC(C)C(=O)OC(C)C(Oc2ccc(Cl)cc2)C2CCCC2)c1OCOC(C)=O` (stereo not drawn) [Cmpd 912]: in assay [1], the “SEPTTR 1DP disease control rating” value is “A (> 80)” and the “SEPTTR 3DC disease control rating” value is listed as “A (> 80)”. In assay [2], the “PUCCRT 1DP disease control rating” value is reported as “A (> 80)” and the “PUCCRT 3DC disease control rating” value is “A (> 80)”. Besides, in assay [3], the “PHAKPA disease control, 1DP” value was “B (≤ 80)” and the “PHAKPA disease control, 3DC” value is given as “B (≤ 80)”.
As to `COc1ccnc(C(=O)N[C@@H](C)C(=O)O[C@@H](C)[C@H](Oc2cccc(Cl)c2)C2CCCC2)c1OC(C)=O` [Cmpd 920, (S)-(1R,2S)-1-(3-chlorophenoxy)-1-cyclopentylpropan-2-yl-2-(3-acetoxy-4-methoxypicolinamido)propanoate], in assay [1], the “SEPTTR 1DP disease control rating” value is “A (> 80)” and the “SEPTTR 3DC disease control rating” value is recorded as “A (> 80)”. Further, in assay [2], the “PUCCRT 1DP disease control rating” value is “A (> 80)” and the “PUCCRT 3DC disease control rating” value is on record as “A (> 80)”. In addition, in assay [3], the “PHAKPA disease control, 1DP” value is on record as “B (≤ 80)” and the “PHAKPA disease control, 3DC” value is listed as “B (≤ 80)”.
As for `COc1cccc(OC(C2CCCC2)C(C)OC(=O)C(C)NC(=O)c2nccc(OC)c2OCOC(C)=O)c1` (stereo not drawn) [Cmpd 917], in assay [1], the “SEPTTR 1DP disease control rating” value is on record as “B (≤ 80)” and the “SEPTTR 3DC disease control rating” value is listed as “A (> 80)”. In assay [2], the “PUCCRT 1DP disease control rating” value is reported as “A (> 80)” and the “PUCCRT 3DC disease control rating” value is reported as “A (> 80)”. In addition, in assay [3], the “PHAKPA disease control, 1DP” value is “B (≤ 80)” and the “PHAKPA disease control, 3DC” value is given as “B (≤ 80)”.
Take `COc1ccnc(C(=O)NC(C)C(=O)OC(C)(C)C(Oc2ccccc2)C(C)C)c1OCOC(C)=O` (mixture of isomers) [Cmpd 904]: in assay [1], the “SEPTTR 1DP disease control rating” value was “B (≤ 80)” and the “SEPTTR 3DC disease control rating” value is given as “A (> 80)”. In addition, in assay [2], the “PUCCRT 1DP disease control rating” value is on record as “A (> 80)” and the “PUCCRT 3DC disease control rating” value is on record as “A (> 80)”. Also, in assay [3], the “PHAKPA disease control, 1DP” value is on record as “A (> 80)” and the “PHAKPA disease control, 3DC” value was “B (≤ 80)”.
In the case of `COc1ccnc(C(=O)NC(C)C(=O)OC(C)C(Oc2ccc(F)cc2)C2CCCC2)c1OCOC(C)=O` (stereo not drawn) [Cmpd 910], in assay [1], the “SEPTTR 1DP disease control rating” value was “A (> 80)” and the “SEPTTR 3DC disease control rating” value is “A (> 80)”. In addition, in assay [2], the “PUCCRT 1DP disease control rating” value is given as “A (> 80)” and the “PUCCRT 3DC disease control rating” value was “A (> 80)”. Besides, in assay [3], the “PHAKPA disease control, 1DP” value is recorded as “A (> 80)” and the “PHAKPA disease control, 3DC” value is on record as “B (≤ 80)”.
On to `COc1ccnc(C(=O)N[C@@H](C)C(=O)O[C@@H](C)[C@H](Oc2ccc(Cl)cc2)C(C)C)c1OCOC(C)=O` [Cmpd 563], for which, in assay [1], the “SEPTTR 1DP … (% Control rating)” value is reported as “B (≤ 80)” and the “SEPTTR 3DC … (% Control rating)” value is “A (> 80)”. In assay [2], the “PUCCRT 1DP … (% Control rating)” value was “A (> 80)” and the “PUCCRT 3DC … (% Control rating)” value is “A (> 80)”. Further, in assay [3], the “PHAKPA disease control, 1DP” value is given as “A (> 80)” and the “PHAKPA disease control, 3DC” value is on record as “B (≤ 80)”.
